From ChEMBL document CHEMBL4806968, “Hipk inhibitors and methods of use thereof” (2020)
The source made the active and inactive calls. The rule behind the calls is not given here.

How the values were obtained:
[1] = target: High affinity nerve growth factor receptor (Homo sapiens) (UniProt P04629); experiment: Inhibition of TRKA (unknown origin) at 0.5 uM relative to control
[2] = target: Receptor-type tyrosine-protein kinase FLT3 (Homo sapiens) (UniProt P36888); experiment: Inhibition of FLT3 (unknown origin) at 0.5 uM relative to control
[3] = target: T1, Muscle, skeletal receptor tyrosine-protein kinase (Homo sapiens) (UniProt O15146); experiment: Inhibition of MUSK (unknown origin) at 0.5 uM relative to control
T1 sequence (whole entry): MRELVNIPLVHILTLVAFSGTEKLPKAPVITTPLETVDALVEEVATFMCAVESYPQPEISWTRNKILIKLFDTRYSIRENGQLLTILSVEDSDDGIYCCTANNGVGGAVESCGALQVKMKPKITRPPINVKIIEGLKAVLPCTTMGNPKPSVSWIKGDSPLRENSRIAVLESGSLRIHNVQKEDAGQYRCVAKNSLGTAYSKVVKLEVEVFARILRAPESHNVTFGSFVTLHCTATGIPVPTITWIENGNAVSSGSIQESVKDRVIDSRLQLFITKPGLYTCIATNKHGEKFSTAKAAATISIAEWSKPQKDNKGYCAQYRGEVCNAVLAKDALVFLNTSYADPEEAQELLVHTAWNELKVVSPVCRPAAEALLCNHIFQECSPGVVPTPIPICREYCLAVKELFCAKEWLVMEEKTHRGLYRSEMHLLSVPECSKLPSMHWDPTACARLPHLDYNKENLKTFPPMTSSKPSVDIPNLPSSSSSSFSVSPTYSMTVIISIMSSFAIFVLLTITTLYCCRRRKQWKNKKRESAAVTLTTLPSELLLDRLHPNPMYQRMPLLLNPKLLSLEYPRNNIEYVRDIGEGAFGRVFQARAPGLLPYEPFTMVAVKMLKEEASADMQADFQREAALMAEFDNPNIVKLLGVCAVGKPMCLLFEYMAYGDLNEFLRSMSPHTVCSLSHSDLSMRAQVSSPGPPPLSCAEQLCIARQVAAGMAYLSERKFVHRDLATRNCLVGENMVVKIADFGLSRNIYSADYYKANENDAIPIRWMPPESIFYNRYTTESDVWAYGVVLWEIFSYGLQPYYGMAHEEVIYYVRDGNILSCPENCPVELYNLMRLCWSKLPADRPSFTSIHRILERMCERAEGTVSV

[4] = target: Mast/stem cell growth factor receptor Kit (Homo sapiens) (UniProt P10721); experiment: Inhibition of KIT (unknown origin) at 0.5 uM relative to control
[5] = target: NT-3 growth factor receptor (Homo sapiens) (UniProt Q16288); experiment: Inhibition of TRKC (unknown origin) at 0.5 uM relative to control
[6] = target: T2, Discoidin domain-containing receptor 2 (Homo sapiens) (UniProt Q16832); experiment: Inhibition of DDR2 (unknown origin) at 0.5 uM relative to control
T2 sequence (whole entry): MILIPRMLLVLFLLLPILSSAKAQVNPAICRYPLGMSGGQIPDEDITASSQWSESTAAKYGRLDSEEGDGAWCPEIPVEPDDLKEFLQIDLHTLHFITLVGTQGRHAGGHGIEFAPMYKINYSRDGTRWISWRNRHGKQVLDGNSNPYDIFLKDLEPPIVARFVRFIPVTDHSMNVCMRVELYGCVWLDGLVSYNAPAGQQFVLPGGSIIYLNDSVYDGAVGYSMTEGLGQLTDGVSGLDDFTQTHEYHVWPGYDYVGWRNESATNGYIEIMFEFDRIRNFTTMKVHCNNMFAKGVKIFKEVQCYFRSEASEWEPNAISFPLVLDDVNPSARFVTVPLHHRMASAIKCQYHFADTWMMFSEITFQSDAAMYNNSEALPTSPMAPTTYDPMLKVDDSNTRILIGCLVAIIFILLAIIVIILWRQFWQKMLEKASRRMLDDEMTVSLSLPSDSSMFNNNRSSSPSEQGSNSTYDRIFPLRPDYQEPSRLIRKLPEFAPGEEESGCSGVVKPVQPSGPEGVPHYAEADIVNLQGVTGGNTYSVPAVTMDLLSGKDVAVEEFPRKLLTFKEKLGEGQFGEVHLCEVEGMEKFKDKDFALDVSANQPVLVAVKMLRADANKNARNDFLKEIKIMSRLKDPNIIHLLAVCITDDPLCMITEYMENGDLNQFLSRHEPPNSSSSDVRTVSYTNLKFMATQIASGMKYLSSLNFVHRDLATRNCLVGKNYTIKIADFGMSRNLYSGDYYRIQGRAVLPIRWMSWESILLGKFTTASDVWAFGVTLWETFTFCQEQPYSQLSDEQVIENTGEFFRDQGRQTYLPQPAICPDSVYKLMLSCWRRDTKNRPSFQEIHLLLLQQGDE

[7] = target: Tyrosine-protein kinase receptor UFO (Homo sapiens) (UniProt P30530); experiment: Inhibition of AXL (unknown origin) at 0.5 uM relative to control
[8] = target: Receptor-interacting serine/threonine-protein kinase 2 (Homo sapiens) (UniProt O43353); experiment: Inhibition of RIPK2 (unknown origin) at 0.5 uM relative to control
MDA-MB-231 = experiment: Inhibition of cell migration in human MDA-MB-231 cells; assay type: functional, cell-based
[9] = target: Ephrin type-A receptor 5 (Homo sapiens) (UniProt P54756); experiment: Inhibition of EPH-A5 (unknown origin) at 0.5 uM relative to control
Ephrin type-A receptor 5 (Homo sapiens), sequence (P54756 whole entry): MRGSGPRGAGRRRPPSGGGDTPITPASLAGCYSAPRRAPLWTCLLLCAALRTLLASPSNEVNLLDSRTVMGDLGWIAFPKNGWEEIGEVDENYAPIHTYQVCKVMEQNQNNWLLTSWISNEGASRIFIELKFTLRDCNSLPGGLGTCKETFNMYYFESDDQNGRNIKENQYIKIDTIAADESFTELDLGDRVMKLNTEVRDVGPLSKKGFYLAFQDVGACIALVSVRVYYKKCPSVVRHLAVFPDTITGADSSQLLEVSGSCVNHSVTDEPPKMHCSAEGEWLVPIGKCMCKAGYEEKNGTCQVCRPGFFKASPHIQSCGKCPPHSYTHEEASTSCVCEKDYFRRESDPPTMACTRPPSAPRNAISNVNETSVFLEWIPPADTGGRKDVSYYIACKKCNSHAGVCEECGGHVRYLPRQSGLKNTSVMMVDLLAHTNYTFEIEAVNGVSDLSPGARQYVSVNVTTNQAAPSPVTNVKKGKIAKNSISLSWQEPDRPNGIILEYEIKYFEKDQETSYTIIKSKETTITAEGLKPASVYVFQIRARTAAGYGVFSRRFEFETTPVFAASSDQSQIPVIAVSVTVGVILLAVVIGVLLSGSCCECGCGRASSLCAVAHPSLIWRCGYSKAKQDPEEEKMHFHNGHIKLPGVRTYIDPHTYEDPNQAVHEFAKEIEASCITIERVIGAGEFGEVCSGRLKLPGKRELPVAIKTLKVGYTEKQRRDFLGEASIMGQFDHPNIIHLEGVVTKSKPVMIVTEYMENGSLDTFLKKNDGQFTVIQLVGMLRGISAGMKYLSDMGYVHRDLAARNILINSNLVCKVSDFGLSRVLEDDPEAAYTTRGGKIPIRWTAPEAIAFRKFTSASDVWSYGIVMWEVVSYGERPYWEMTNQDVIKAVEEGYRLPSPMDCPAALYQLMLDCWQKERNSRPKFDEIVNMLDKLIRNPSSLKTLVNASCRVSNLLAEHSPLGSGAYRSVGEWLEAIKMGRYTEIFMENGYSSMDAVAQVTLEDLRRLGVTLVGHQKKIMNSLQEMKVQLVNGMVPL

Receptor-type tyrosine-protein kinase FLT3 (Homo sapiens), sequence (P36888 whole entry): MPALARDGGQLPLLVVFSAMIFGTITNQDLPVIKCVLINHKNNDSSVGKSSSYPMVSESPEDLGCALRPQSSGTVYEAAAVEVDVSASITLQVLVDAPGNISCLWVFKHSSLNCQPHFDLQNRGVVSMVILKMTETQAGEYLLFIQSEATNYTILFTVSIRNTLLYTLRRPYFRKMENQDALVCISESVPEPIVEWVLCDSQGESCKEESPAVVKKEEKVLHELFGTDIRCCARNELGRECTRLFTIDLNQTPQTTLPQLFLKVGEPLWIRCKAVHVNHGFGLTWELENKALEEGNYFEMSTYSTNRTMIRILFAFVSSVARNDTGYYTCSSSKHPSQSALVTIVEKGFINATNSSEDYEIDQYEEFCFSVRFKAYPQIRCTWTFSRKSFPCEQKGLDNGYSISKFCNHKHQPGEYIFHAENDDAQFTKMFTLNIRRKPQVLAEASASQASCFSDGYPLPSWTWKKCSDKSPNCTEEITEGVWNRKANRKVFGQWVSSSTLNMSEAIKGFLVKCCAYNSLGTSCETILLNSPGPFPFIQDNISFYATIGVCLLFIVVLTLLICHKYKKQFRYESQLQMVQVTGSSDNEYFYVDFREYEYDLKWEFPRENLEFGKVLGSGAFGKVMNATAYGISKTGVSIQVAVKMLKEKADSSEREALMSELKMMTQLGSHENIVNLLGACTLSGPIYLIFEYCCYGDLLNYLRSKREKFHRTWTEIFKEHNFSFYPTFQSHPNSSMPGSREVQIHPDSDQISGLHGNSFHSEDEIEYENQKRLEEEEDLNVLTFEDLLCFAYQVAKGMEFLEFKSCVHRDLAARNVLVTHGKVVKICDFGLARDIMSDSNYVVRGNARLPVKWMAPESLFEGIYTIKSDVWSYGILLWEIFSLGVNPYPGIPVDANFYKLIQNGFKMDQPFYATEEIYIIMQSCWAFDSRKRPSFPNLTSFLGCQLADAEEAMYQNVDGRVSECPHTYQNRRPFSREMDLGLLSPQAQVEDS
High affinity nerve growth factor receptor (Homo sapiens), sequence (P04629 33-796 limits assumed): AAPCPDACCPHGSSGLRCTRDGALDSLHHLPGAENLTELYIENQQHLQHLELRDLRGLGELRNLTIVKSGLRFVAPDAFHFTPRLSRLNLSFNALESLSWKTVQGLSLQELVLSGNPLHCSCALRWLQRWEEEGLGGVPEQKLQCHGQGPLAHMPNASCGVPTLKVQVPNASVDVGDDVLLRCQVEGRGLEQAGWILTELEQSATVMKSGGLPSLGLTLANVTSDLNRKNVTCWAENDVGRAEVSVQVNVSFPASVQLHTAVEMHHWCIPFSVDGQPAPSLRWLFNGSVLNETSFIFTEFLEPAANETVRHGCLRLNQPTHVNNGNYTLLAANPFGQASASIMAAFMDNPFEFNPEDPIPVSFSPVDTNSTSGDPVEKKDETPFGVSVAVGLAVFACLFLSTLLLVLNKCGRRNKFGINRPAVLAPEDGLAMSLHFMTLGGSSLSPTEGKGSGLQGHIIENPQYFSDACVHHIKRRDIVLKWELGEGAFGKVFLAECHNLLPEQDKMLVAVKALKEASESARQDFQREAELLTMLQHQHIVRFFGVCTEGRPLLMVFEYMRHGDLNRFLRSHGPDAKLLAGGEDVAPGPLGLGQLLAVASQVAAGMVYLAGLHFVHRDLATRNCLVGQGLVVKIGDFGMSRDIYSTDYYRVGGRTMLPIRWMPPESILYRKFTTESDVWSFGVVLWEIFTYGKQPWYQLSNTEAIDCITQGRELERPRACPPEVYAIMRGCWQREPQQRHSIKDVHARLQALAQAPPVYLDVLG
Mast/stem cell growth factor receptor Kit (Homo sapiens), sequence (P10721 whole entry): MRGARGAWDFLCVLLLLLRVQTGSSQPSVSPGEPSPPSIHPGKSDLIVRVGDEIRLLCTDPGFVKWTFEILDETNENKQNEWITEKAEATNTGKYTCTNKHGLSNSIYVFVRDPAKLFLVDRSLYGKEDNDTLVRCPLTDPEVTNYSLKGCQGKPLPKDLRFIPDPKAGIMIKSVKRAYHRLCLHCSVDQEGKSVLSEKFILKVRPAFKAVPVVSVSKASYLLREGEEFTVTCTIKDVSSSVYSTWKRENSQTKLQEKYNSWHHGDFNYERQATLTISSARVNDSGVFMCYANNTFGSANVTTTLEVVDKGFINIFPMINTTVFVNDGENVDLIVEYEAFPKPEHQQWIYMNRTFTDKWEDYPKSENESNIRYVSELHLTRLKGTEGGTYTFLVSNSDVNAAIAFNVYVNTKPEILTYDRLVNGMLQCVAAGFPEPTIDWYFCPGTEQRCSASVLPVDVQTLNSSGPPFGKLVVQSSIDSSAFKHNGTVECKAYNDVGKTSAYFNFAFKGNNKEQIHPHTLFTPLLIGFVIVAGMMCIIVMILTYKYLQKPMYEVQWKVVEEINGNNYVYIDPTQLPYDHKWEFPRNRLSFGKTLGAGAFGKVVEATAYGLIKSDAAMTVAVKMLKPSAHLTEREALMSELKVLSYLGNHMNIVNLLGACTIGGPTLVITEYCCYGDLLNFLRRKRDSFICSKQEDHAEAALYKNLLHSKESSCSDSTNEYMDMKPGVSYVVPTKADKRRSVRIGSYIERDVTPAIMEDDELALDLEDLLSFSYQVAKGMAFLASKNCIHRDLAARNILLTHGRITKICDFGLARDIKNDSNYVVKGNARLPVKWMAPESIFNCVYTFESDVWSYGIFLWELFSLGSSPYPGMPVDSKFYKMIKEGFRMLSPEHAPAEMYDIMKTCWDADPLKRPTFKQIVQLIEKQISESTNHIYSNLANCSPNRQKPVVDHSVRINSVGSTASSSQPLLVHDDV
Receptor-interacting serine/threonine-protein kinase 2 (Homo sapiens), sequence (O43353 whole entry): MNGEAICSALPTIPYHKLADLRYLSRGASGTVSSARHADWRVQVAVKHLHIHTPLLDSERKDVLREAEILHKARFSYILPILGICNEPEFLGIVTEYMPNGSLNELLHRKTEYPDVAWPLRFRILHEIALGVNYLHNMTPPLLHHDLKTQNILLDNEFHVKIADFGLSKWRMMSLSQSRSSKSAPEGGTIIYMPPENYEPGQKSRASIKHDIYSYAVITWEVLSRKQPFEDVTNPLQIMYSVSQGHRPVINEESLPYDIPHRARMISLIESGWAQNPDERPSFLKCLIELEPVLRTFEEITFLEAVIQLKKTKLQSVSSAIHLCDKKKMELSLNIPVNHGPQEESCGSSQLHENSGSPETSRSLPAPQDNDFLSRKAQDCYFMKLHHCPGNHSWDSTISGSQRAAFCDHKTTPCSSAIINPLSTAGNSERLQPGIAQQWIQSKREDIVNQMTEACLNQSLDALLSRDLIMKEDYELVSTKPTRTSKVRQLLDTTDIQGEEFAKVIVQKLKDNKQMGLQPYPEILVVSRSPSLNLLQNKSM

SMILES	inhibition [1]	inhibition [2]	inhibition [3]	inhibition [4]	inhibition [5]	inhibition [6]	inhibition [7]	inhibition [8]	inhibition (MDA-MB-231)	inhibition [9]
CNC(=O)c1cc(Oc2ccc(NC(=O)c3nc(SC)n(CCN(C)C)c3-c3ccc(F)cc3)cc2)ccn1	42%	50%	29%	27%	57%	26%	64%	–	–	–
CNC(=O)c1cc(Oc2ccc(NC(=O)c3nc(SC)oc3-c3ccc(F)cc3)cc2)ccn1	47%	–	–	40%	51%	58%	–	63%	Active	–
CNC(=O)c1cc(Oc2ccc(NC(=O)c3nc(NC)sc3-c3ccc(F)cc3)cc2)ccn1	58%	–	51%	47%	76%	54%	–	40%	–	50%
CNC(=O)c1cc(Oc2ccc(NC(=O)c3n[nH]nc3-c3ccc(F)cc3)cc2)ccn1	43%	44%	25%	65%	55%	76%	–	65%	–	–
CNC(=O)c1cc(Oc2ccc(NC(=O)c3nc(C(F)(F)F)sc3-c3ccc(F)cc3)cc2)ccn1	–	39%	34%	33%	–	–	52%	–	–	–
CNC(=O)c1cc(Oc2ccc(NC(=O)c3nc(SC)[nH]c3-c3ccc(F)cc3)cc2)ccn1	–	–	97%	–	90%	97%	91%	–	Active	85%
CNC(=O)c1cc(Oc2ccc(NC(=O)c3nc(SC)oc3-c3ccc(F)cc3)cc2F)ccn1	43%	36%	–	–	46%	47%	–	51%	–	–
CSc1nc(C(=O)Nc2ccc(Oc3cc4cnn(C)c4cc3Br)cc2)c(-c2ccc(F)cc2)o1	–	27%	–	–	–	48%	–	–	–	–
CNC(=O)c1cc(Oc2ccc(NC(=O)c3nc(S(C)(=O)=O)sc3-c3ccc(F)cc3)cc2)ccn1	36%	56%	70%	25%	25%	61%	83%	–	Active	21%
